Results on 8 compounds are retold here after US6048854A, “2,3-diaminopropionic acid derivative” (Sumitomo Pharmaceuticals Company, Limited, priority 1993, dated 2000).

The structures appear in SMILES notation. Like-named read-outs stand apart in the source and are kept apart here.

One assay deals with T1, human fibrinogen (Homo sapiens, UniProt P05106+P08514).
T1 construct: centrifuged at 11000 rpm for two minutes to give human platelet; from tissue
Briefly: Binding assay of platelet to adhesive protein: fibrinogen (receptor binding inhibition). Particulars: Table 4; fixed activated human platelets, 37° C., 60 minutes. Put shortly:
(§1)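 Washed human platelets, activated with 5 µM epinephrine and 30 µM ADP, then paraformaldehyde-fixed, added at 10^8/mL with compound to wells coated with 5 µg/mL fibrinogen (fibronectin-depleted), fibronectin or vitronectin; 60 min, 37 °C. Bound platelets detected with HRP anti-mouse IgG and o-phenylenediamine, A490.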

The subject of a further assay is human fibronectin. Briefly: Binding assay of platelet to adhesive protein: fibronectin (receptor binding inhibition). The conditions noted are these: Table 4; fixed activated human platelets, 37° C., 60 minutes. The procedure, abridged: as §1
Assay [1] has as its system platelet aggregation. Briefly: Platelet aggregation inhibitory activity (ex vivo) after oral administration. The conditions noted are these: Cavia porcellus, guinea pig, oral 0.1 mg/kg, ADP 10 μg/ml. Format: in vivo. Put shortly: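 Guinea pigs dosed orally at 0.1 mg/kg; citrated carotid blood taken before and at 0.5, 1, 2, 4 and 6 h. PRP aggregation induced by ADP (10 μg/ml final) at 37° C, measured turbidimetrically; inhibition = (1 − MAR sample/MAR predose) × 100.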

Assay [2] concerns platelet aggregation. Briefly: Platelet aggregation inhibitory activity (ADP-induced, human platelet rich plasma). In kind it is cell-based. The conditions noted are these: Homo sapiens, Table 3, same manner as Example 17. Put shortly:
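Citrated human platelet-rich plasma […] was stirred with test compound for 2 min at 37 °C. Aggregation was then induced with ADP at 3 μg/ml final and monitored by nephelometry. IC50 is the concentration giving 50% inhibition of aggregation.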

Another assay relates to human vitronectin. Briefly: Binding assay of platelet to adhesive protein: vitronectin (receptor binding inhibition). The conditions noted are these: Table 4; fixed activated human platelets, 37° C., 60 minutes; read-out: receptor binding inhibition (IC50), Bitronectin. The procedure, abridged:
as §1

Where [3] appears, read: 0.5 hr, read-out: platelet aggregation inhibitory rate (%), 0.5 hr.
Setting [4] is: 1 hr, read-out: platelet aggregation inhibitory rate (%), 1 hr.
The mark [5] stands for this setting: 2 hrs, read-out: platelet aggregation inhibitory rate (%), 2 hrs.
Where [6] appears, read: 4 hrs, read-out: platelet aggregation inhibitory rate (%), 4 hrs.
Where [7] appears, read: 6 hrs, read-out: platelet aggregation inhibitory rate (%), 6 hrs.

T1 sequence (P08514 32-887 limits assumed): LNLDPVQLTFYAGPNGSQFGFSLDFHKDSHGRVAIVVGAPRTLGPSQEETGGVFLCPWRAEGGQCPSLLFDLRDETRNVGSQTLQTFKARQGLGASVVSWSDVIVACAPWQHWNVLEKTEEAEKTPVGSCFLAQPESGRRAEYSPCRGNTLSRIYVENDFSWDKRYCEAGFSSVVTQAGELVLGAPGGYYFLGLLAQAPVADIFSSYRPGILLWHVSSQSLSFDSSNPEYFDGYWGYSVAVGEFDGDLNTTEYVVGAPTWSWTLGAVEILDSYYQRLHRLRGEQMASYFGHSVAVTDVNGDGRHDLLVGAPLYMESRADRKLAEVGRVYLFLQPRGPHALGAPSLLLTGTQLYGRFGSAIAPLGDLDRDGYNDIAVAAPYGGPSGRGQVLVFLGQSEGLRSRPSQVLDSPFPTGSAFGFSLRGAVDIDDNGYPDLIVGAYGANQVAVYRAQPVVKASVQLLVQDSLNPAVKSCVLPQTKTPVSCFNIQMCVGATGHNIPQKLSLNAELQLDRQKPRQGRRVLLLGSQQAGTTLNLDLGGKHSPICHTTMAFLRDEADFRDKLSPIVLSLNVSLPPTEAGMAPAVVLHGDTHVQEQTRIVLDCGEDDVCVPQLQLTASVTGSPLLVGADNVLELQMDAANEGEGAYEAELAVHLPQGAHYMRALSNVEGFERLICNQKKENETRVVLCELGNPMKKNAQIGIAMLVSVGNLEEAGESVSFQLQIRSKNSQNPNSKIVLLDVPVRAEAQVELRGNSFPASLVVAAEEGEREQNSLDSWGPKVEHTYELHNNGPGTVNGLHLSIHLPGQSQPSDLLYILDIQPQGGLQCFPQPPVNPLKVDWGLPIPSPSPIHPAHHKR
T1 sequence (P08514 891-1039 limits assumed): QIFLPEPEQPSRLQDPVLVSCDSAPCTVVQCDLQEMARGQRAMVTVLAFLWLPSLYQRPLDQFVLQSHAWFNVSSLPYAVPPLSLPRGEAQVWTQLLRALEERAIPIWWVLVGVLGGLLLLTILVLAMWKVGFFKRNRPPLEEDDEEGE
T1 sequence (P05106 27-788): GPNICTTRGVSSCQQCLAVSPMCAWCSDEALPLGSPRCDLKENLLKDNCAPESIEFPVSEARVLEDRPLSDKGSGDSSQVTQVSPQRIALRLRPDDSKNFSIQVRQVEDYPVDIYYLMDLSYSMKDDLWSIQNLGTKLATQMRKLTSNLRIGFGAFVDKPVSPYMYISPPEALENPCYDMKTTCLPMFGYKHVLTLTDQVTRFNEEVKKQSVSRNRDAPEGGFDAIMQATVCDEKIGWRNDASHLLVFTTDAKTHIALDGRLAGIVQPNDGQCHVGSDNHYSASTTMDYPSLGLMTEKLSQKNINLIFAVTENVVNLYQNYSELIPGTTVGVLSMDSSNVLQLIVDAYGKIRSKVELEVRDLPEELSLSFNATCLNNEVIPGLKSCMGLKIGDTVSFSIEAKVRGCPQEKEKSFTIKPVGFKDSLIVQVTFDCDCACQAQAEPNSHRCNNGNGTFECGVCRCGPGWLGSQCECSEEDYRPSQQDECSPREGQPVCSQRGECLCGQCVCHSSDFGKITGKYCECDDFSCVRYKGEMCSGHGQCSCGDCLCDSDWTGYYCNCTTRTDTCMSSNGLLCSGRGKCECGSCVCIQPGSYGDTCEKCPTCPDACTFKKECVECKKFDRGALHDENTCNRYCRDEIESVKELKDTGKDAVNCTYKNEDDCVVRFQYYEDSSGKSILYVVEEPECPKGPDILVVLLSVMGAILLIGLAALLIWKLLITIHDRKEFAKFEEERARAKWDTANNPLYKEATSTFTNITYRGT

For the compound `N=C(N)c1ccc(OCCCC(=O)NC[C@H](NS(=O)(=O)c2ccccc2C(F)(F)F)C(=O)O)cc1` [Example 82, (2S)-3-(4-(4-amidinophenoxy)butanoylamino)-2-(2-trifluoromethyl)benzenesulfonylaminopropanoic Acid], the IC50 (commonly the point on the concentration scale where inhibition reaches its midpoint) on human fibrinogen turned out to be 0.0012 µM; in the assay on human fibronectin it was 0.019 µM; in the assay with platelet aggregation [2], 0.031 µM; in the assay on human vitronectin, 0.27 µM. In addition, the inhibition in vivo at 0.1 mg/kg with platelet aggregation [1] (setting [3]) is 81%; with platelet aggregation [1] (setting [4]), 66%; in the assay with platelet aggregation [1] (setting [5]) it was 54%; in the assay on platelet aggregation [1] (setting [6]) it was 52%; in the assay with platelet aggregation [1] (setting [7]), 51%.

As to `CCc1ccc(S(=O)(=O)N[C@@H](CNC(=O)CCCOc2ccc(C(=N)N)cc2)C(=O)O)cc1` [Example 83, (2S)-3-(4-(4-amidinophenoxy)butanoylamino)-2-(4-ethyl)benzenesulfonylaminopropanoic Acid], the IC50 at human fibrinogen came out at 0.022 µM; in the assay with human fibronectin it was 0.77 µM; in the assay on platelet aggregation [2], 0.03 µM; in the assay on human vitronectin, 7.8 µM. Further, the inhibition in vivo at 0.1 mg/kg with platelet aggregation [1] (setting [3]) amounted to 50%; with platelet aggregation [1] (setting [4]), 47%; in the assay with platelet aggregation [1] (setting [5]), 48%; with platelet aggregation [1] (setting [6]), 32%; with platelet aggregation [1] (setting [7]), 41%.

`N=C(N)c1ccc(OCCCCC(=O)NC[C@H](NS(=O)(=O)c2ccccc2[N+](=O)[O-])C(=O)O)cc1` [Example 85, (2S)-3-(5-(4-amidinophenoxy)pentanoylamino)-2-(2-nitro)benzenesulfonylaminopropanoic Acid]: the IC50 on human fibrinogen was 0.0048 µM; in the assay with human fibronectin, 0.02 µM; with platelet aggregation [2], 0.026 µM; in the assay with human vitronectin it was 0.27 µM. Also, the inhibition in vivo at 0.1 mg/kg in the assay on platelet aggregation [1] (setting [3]) was 36%; with platelet aggregation [1] (setting [4]), 41%; with platelet aggregation [1] (setting [5]), 44%; with platelet aggregation [1] (setting [6]), 31%; in the assay on platelet aggregation [1] (setting [7]) it was 17%.

On to `Cc1cc(C)c(S(=O)(=O)N[C@@H](CNC(=O)CCCCOc2ccc(C(=N)N)cc2)C(=O)O)c(C)c1` [Example 86, (2S)-3-(5-(4-amidinophenoxy)pentanoylamino)-2-(2,4,6-trimethyl)benzenesulfonylaminopropanoic Acid], for which the half-maximal inhibitory concentration (IC50) on human fibrinogen was found to be 0.0011 µM; with human fibronectin it was 0.12 µM; in the assay on platelet aggregation [2], 0.056 µM; in the assay on human vitronectin, 0.5 µM. In addition, the inhibition in vivo at 0.1 mg/kg was 46% in the assay with platelet aggregation [1] (setting [3]); 0% with platelet aggregation [1] (setting [4]); 0% in the assay with platelet aggregation [1] (setting [5]); 0% with platelet aggregation [1] (setting [6]); 0% in the assay on platelet aggregation [1] (setting [7]).

Take `Cc1cc(C)c(S(=O)(=O)N[C@@H](CNC(=O)CCCCc2ccc(C(=N)N)cc2)C(=O)O)c(C)c1` [Example 87, (2S)-3-(5-(4-amidinophenyl)pentanoylamino)-2-(2,4,6-trimethyl)benzenesulfonylaminopropanoic Acid]: the IC50 on human fibrinogen was determined as 0.012 µM; with human fibronectin it was 0.21 µM; with platelet aggregation [2] it was 0.025 µM; in the assay with human vitronectin, 2.7 µM. In addition, the inhibition in vivo at 0.1 mg/kg in the assay on platelet aggregation [1] (setting [3]) is 100%; in the assay with platelet aggregation [1] (setting [4]), 100%; in the assay with platelet aggregation [1] (setting [5]) it was 100%; in the assay on platelet aggregation [1] (setting [6]), 100%; in the assay with platelet aggregation [1] (setting [7]) it was 80%.

With `N=C(N)c1ccc(CCCCCC(=O)NC[C@H](NS(=O)(=O)c2ccccc2)C(=O)O)cc1` [Example 91, (2S)-3-(6-(4-amidinophenyl)hexanoylamino)-2-benzenesulfonylaminopropanoic Acid], the IC50 at human fibrinogen turned out to be 0.0047 µM; in the assay with human fibronectin, 0.05 µM; in the assay on platelet aggregation [2], 0.023 µM; in the assay on human vitronectin it was 1.3 µM. The inhibition in vivo at 0.1 mg/kg in the assay with platelet aggregation [1] (setting [3]) is 51%; in the assay on platelet aggregation [1] (setting [4]), 41%; in the assay with platelet aggregation [1] (setting [5]) it was 31%; in the assay with platelet aggregation [1] (setting [6]) it was 14%; in the assay with platelet aggregation [1] (setting [7]) it was 39%.

Take `Cc1cc(C)c(S(=O)(=O)N[C@@H](CNC(=O)CCCCCc2ccc(C(=N)N)cc2)C(=O)O)c(C)c1` [Example 92, (2S)-3-(6-(4-amidinophenyl)hexanoylamino)-2-(2,4,6-trimethyl)benzenesulfonylaminopropanoic Acid]: the IC50 on human fibrinogen is 0.0039 µM; in the assay with human fibronectin, 0.024 µM; with platelet aggregation [2], 0.037 µM; with human vitronectin, 0.5 µM. In addition, the inhibition in vivo at 0.1 mg/kg turned out to be 68% with platelet aggregation [1] (setting [3]); 34% in the assay with platelet aggregation [1] (setting [4]); 24% in the assay on platelet aggregation [1] (setting [5]); 47% in the assay with platelet aggregation [1] (setting [6]); 0% in the assay with platelet aggregation [1] (setting [7]).

For `COc1ccc(S(=O)(=O)N[C@@H](CNC(=O)CC2CCN(c3ccc(C(=N)N)cc3)CC2)C(=O)O)cc1` [Example 93, (2S)-3-(2-(1-(4-amidinophenyl)-4-piperidyl)ethanoylamino)-2-(4-methoxy)benzenesulfonylaminopropanoic Acid], the concentration for half-maximal inhibition (IC50) at human fibrinogen turned out to be 0.015 µM; with human fibronectin it was 0.095 µM; in the assay on platelet aggregation [2], 0.093 µM; in the assay with human vitronectin it was 3.5 µM. Moreover, the inhibition in vivo at 0.1 mg/kg in the assay with platelet aggregation [1] (setting [3]) turned out to be 4%; in the assay on platelet aggregation [1] (setting [4]), 27%; in the assay with platelet aggregation [1] (setting [5]), 69%; in the assay with platelet aggregation [1] (setting [6]) it was 44%; in the assay with platelet aggregation [1] (setting [7]), 12%.
